Laboratory results taken from PMC5290737, “Surface mediated cooperative interactions of drugs enhance mechanical forces for antibiotic action” (Scientific Reports, 2017).
Converted amounts (≈) assume the structure as drawn. “And” between values parts separate entries of the source, which are not always exact repeats. Equal values may be shown once.

What was measured:
[1] = test system: methicillin-susceptible Staphylococcus aureus (MSSA) ATCC 29213; experiment: MIC by broth microdilution (CLSI M07-A8), with PS80; assay type: cell-based
Experimental: Determination of MIC values to methicillin-susceptible Staphylococcus aureus (MSSA).
Minimum Inhibitory Concentration (MIC) is defined as the lowest concentration of antibacterial agent required to inhibit growth of a microorganism after incubation. The antibiotics vancomycin (Van) and ristomycin (Rist) were obtained from Sigma-Aldrich while chloroeremomycin (CE) and oritavancin (Ori) were obtained from the Medicine Company Inc., U.S.A. To prepare antibiotic stock solutions for MICs assay, 5 mg/ml of each drug was dissolved in water containing an appropriate volume of 0.002% polysorbate-80 or PS80 obtained from Sigma-Aldrich which corresponds to 20 µM to eliminate nonspecific interactions of drugs to surfaces particularly for Ori which is known to bind to glass and plastics13. Microbiological broth with PS80 maintained at 20 µM was used in the drug dilution steps until the required final (assay) concentration. Diluted concentrations of each drug were assayed by adding an inoculum of methicillin-susceptible Staphylococcus aureus (MSSA) ATCC 29213 cells and the MIC determined by broth microdilution according to Clinical Laboratory Standards Institute (CLSI) methodology M07-A8 (CLSI 2009a)14. The results as shown in Supplementary Table S2 for each antibiotic against clinical isolate of MSSA ATCC 29213 strains conducted in the presence of […]
PS80 are within the quality control ranges defined in the guideline15. […]

[2] = test system: vancomycin susceptible E. faecalis (VSE); details: absence of polysorbate-80; ref. 9 (Van, CE, Ori), ref. 10 (Rist), supplementary references; cited from earlier work
[3] = biological target: VRR in solution; details: ref. 1 (Van), ref. 6 (Rist), ref. 8 (CE), ref. 2 (Ori), supplementary references, read-out: Ksurf Solution; cited from earlier work
[4] = test system: methicillin-resistant Staphylococcus aureus (MRSA); details: absence of polysorbate-80; supplementary references; cited from earlier work
[5] = test system: vancomycin resistant E. faecalis (VRE); details: absence of polysorbate-80; ref. 2 (Van), ref. 5 (Rist, CE), ref. 9 (Ori), supplementary references; cited from earlier work
[6] = ligand-ligand dissociation constant in solution; ref. 2 (Van, CE, Ori), ref. 5 (Rist), supplementary references; read-out: K1 Solution (complex aggregation constant); cited from earlier work
[7] = test system: membrane bound VRR (competitor Ac-VSR); experiment: Competitive inhibition of drug-VRR cantilever response by Ac-VSR in solution; assay type: binding; details: for IC50: Van 50 μM or Ori 0.1 μM against VRR cantilever, fit of equation (1), read-out: IC50 (concentration of antagonist Ac-VSR giving 50% inhibition of drug-receptor interactions at the surface); for Ac-VSR concentration required to inhibit the mechanical response: Van 50 μM, Ori 0.1 μM against VRR
Experimental: In the first set of experiments, we assessed whether the 2-D boundary layer could mediate more efficient complex aggregation of antibiotics and thus lead to enhanced signal transduction compared to a 3-D solution. To achieve this, diacetyl vancomycin susceptible receptor (or Ac-VSR)[14] was added to the solution containing Van or Ori in order to act as a competitor against membrane bound VRR. […] The concentrations of Van and Ori in solution were kept constant at 50 μM and 0.1 μM respectively. These particular concentrations were chosen because (1) they give rise to relatively large mechanical bending signals, (2) they fall within the linear portions of the Langmuir adsorption isotherms, and (3) they require relatively low levels of Ac-VSR to inhibit the mechanical response at the surface. We therefore reasoned that if the interaction between a drug and Ac-VSR is independent of any surface effects then the amount of Ac-VSR which inhibits the mechanical response at a surface is expected to be the same for both Van and Ori. The concentration of antagonist (Ac-VSR) that gives rise to 50% inhibition (IC50) of drug-receptor interactions at the surface was used as measure of membrane effects on the association kinetics and mechanical response. […] To calculate the IC50, we analyzed the data using equation (1), whose detailed derivation has been reported previously.
Here σeq is the equilibrium mechanical stress, σligand1 is the mechanical stress generated by ligand1 in the absence of a competing ligand2, σligand2 is the corresponding minimum stress generated by ligand1 in the presence of a large excess of the concentration of competing ligand2. […] The IC50 for Ori is 3-fold larger than that of Van.

[8] = MSSA ATCC 29213, with PS80, converted from mg/l

| Structure (SMILES) | MIC [1, 8] [µM] | MIC ([1]; Staphylococcus aureus) | MIC VSE [2] [µg/mL] | Kd [3] [µM] | MIC MRSA [4] [µg/mL] | MIC VRE [5] [µg/mL] | Kd [6] [µM] | IC50 for Ori relative to Van ([7]; Ac-VSR competition against VRR) [fold] | IC50 [7] [µM] | Ac-VSR concentration required to inhibit the mechanical response [7] |
| --- | --- | --- | --- | --- | --- | --- | --- | --- | --- | --- |
| CN[C@H](CC(C)C)C(=O)N[C@H]1C(=O)N[C@@H](CC(N)=O)C(=O)N[C@H]2C(=O)N[C@H]3C(=O)N[C@H](C(=O)N[C@H](C(=O)O)c4cc(O)cc(O)c4-c4cc3ccc4O)[C@H](O[C@H]3C[C@](C)(N)[C@@H](O)[C@H](C)O3)c3ccc(c(Cl)c3)Oc3cc2cc(c3O[C@@H]2O[C@H](CO)[C@@H](O)[C@H](O)[C@H]2O[C@H]2C[C@](C)(NCc3ccc(-c4ccc(Cl)cc4)cc3)[C@@H](O)[C@H](C)O2)Oc2ccc(cc2Cl)[C@H]1O [Ori, oritavancin] | 0.03 (≈ 0.0538 µg/mL) | 0.06 µg/mL and 0.03 µM | 0.25 to 2 | 4200 | 0.13 to 1.01 | 0.25 to 2 | 1.6 | 3 | 50.7 ± 2.1 | more than 500 μM |
| CN[C@H](CC(C)C)C(=O)N[C@H]1C(=O)N[C@@H](CC(N)=O)C(=O)N[C@H]2C(=O)N[C@H]3C(=O)N[C@H](C(=O)N[C@H](C(=O)O)c4cc(O)cc(O)c4-c4cc3ccc4O)[C@H](O)c3ccc(c(Cl)c3)Oc3cc2cc(c3O[C@@H]2O[C@H](CO)[C@@H](O)[C@H](O)[C@H]2O[C@H]2C[C@](C)(N)[C@H](O)[C@H](C)O2)Oc2ccc(cc2Cl)[C@H]1O [Van, vancomycin] | 0.67 (≈ 0.971 µg/mL) | 1 µg/mL and 0.67 µM | 0.5 to 4 | 2400 | 0.5 to 4 | 512 (≈ 353 µM) | 20000 |  | 15.4 ± 0.2 | 500 µM |
